# According to patent publication US5312812A, “Pharmaceutical compositions comprising novel oligopeptides exhibiting selective inhibiting effect upon the proliferation of hemopoietic cells” (Richter Gedeon Vegyeszeti Gyar Rt., priority 1990, dated 1994):
# Read-outs that look alike come from different tables or passages of the source. Where a SMILES comes first, the peptide text is derived from it. Where no end group is shown, it is not given here. [ ]: non-standard residue; d: D form. The star is where a group is joined. pGlu = O=C1CC[C@@H](C(=O)O)N1; Acm = CC(=O)NC*
# Legend:
# mouse bone marrow cells [1] = type: cell-based
# Protocol: For the long-term cultivation, cells isolated from mouse bone marrow were used in semi-solid agar culture. 1.5×10^5 femoral medulla cells obtained from 2-3 month old male C57B1 mice were suspended in 1 ml of "McCoy 5A" medium (product of Gibco), then the following were added: 20% by volume of horse blood-serum (product of Gibco), 16% by volume of L-cell CSF (colony stimulating factor prepared from the supernatant of […]; product of the Pharmacological Institute of the Medical University of Debrecen, Hungary) and agar-agar to 0.18% by weight. 100 μl of the semi-solid medium were cultivated in a Micropet capillary for 7 days in the above-described manner, then the colonies were counted under a Zeiss-Cytoplast stereomicroscope of 40-times magnification. The results are given as the percentage reduction of the numbers of colonies compared to the untreated control. The tests were carried out in the presence of 0.25 mmole/l mercapto ethanol (+ME) and without mercapto ethanol (-ME).
# mouse = details: two mouse species; dose of 9.1 mg/animal or 1 mg/animal; cited from earlier work
# human bone marrow cells = details: 10^-15 to 10^-4 mole/l, 7-day in vitro treatment; cited from earlier work
# mouse bone marrow cells [2] = details: 10^-15 to 10^-4 mole/l, 7-day in vitro treatment; cited from earlier work
# cell proliferation = details: cited from earlier work
compound,measurement,setting,value
"CC(=O)NCSC[C@H](NC(=O)[C@H](CC(=O)O)NC(=O)[C@H](CCC(=O)O)NC(=O)[C@@H]1CCC(=O)N1)C(=O)N[C@@H](CCCCN)C(=O)O [SEQ I.D. No: 1, Xaa Glu Asp Cys Lys] ([pGlu]EDC(Acm)K-OH)",percentage reduction of the numbers of colonies compared to the untreated control,mouse bone marrow cells [1]; 1e-12 mole/l,70%
same,percentage reduction of the numbers of colonies compared to the untreated control,mouse bone marrow cells [1]; 1e-8 mole/l,77%
same,percentage reduction of the numbers of colonies compared to the untreated control,mouse bone marrow cells [1]; 1e-4 mole/l,81%
"CC(=O)NCSC[C@H](NC(=O)[C@H](CC(=O)O)NC(=O)[C@@H](N)CCC(=O)O)C(=O)N[C@@H](CCCCN)C(=O)O [SEQ I.D. No: 2, Glu Asp Cys Lys] (H-EDC(Acm)K-OH)",percentage reduction of the numbers of colonies compared to the untreated control,mouse bone marrow cells [1],29%
same,percentage reduction of the numbers of colonies compared to the untreated control,mouse bone marrow cells [1]; 1e-12 mole/l,36%
same,percentage reduction of the numbers of colonies compared to the untreated control,mouse bone marrow cells [1]; 1e-10 mole/l,52%
same,percentage reduction of the numbers of colonies compared to the untreated control,mouse bone marrow cells [1]; 1e-9 mole/l,26%
same,percentage reduction of the numbers of colonies compared to the untreated control,mouse bone marrow cells [1]; 1e-8 mole/l,64%
same,percentage reduction of the numbers of colonies compared to the untreated control,mouse bone marrow cells [1]; 1e-6 mole/l,66%
"NCCCC[C@H](NC(=O)[C@H](CS)NC(=O)[C@H](CC(=O)O)NC(=O)[C@H](CCC(=O)O)NC(=O)[C@@H]1CCC(=O)N1)C(=O)O [SEQ I.D. No: 5, Xaa Glu Asp Cys Lys] (HELM PEPTIDE1{[Glp].E.D.C.K}$$$$V2.0)",toxicity to mice,mouse,not toxic
same,toxicity to bone marrow cells,human bone marrow cells,not toxic
same,toxicity to bone marrow cells,mouse bone marrow cells [2],not toxic
"Xaa Glu Asp Cys Lys Xaa Glu Asp Cys Lys ([pGlu]EDCK[pGlu]EDCK; not fully specified; printed as Xaa Glu Asp Cys Lys Xaa Glu Asp Cys Lys; cysteine pairing not given here) [SEQ I.D. No: 3, dimer molecule of the hemoregulating pentapeptide, Xaa is pyroglutamic acid]",effect on cell proliferation,cell proliferation,cell proliferation stimulating effect
"Xaa Glu Asp Met Lys ([pGlu]EDMK) [SEQ I.D. No: 4, Met analogue of the pentapeptide, Xaa is pyroglutamic acid]",effect on cell proliferation,cell proliferation,ineffectiveness
